{"source": "patent US7863262B2", "about": "“Nitroxyl progenitors in the treatment of heart failure” (Johns Hopkins University, priority 2002, dated 2011)", "key": {"[1]": {"assay": "Long-term infusion (3-4 hours of perfusion)", "type": "in vivo", "experimental": "In particular embodiments the HNO/NO^− donating compound is administered in the form of a pharmaceutical composition. A pharmaceutical composition comprising an effective amount of the HNO/NO^− donating compound as an active ingredient could be easily prepared by standard procedures well known in the art, with pharmaceutically acceptable non-toxic solvents and/or sterile carriers, if necessary. Such preparations are administered orally or in injectable form, or directly to myocardial tissue. In other embodiments the HNO/NO^− donor is administered without a pharmaceutical carrier. In particular embodiments the HNO/NO^− donor is administered by a short-term infusion, such as for 5 to 20 minutes. In other embodiments the HNO/NO^− donor is administered by a long-term infusion, such as from 3-4 hours."}, "reperfused myocardium": {"system": "reperfused myocardium", "details": "anesthetized rabbits; given 5 minutes prior to reperfusion (after ischemia); Ma et al. 1999; cited from earlier work"}, "[2]": {"system": "conscious dogs experiencing congestive heart failure (CHF)", "type": "in vivo, mongrel dogs", "details": "for cardiac load as measured by Edv (preload) and Ea (afterload): FIG. 1"}, "rat renal tissue": {"system": "rat renal tissue", "details": "given during ischemia and 5 minutes before reperfusion; Takahira et al. 2001; cited from earlier work"}, "CGRP receptors": {"system": "CGRP receptors", "assay": "CGRP receptor antagonism with CGRP8-37 in conscious dogs experiencing heart failure", "type": "in vivo, mongrel dogs", "details": "FIG. 6", "experimental": "The diagnostic tests included Ees, DEDV, PRSW, tau, Pes, end diastolic pressure (Ped), end diastolic volume (Ved), and Ea.\nTo test the relation between the inotropic action of HNO/NO^− and calcitonin gene-related peptide (CGRP) signaling, CGRP receptors in mongrel dogs were antagonized using the selective antagonist CGRP8-37 (400 μg in 30 milliliters (ml) of saline bolus, then 2.6 μg/kg/min for 15 min). Plasma CGRP levels measurements were performed by sampling the blood of the dogs. Blood samples (2.5 ml) were withdrawn from arterial, venous, and coronary sinus catheters. After sampling, catheters were flushed with heparanized saline. Samples were centrifuged at 1600 times gravity (g) for 20 minutes at 4° Celsius (C). Plasma was then separated and stored at −20° C. until analysis. Plasma (0.5 ml) was used to extract CGRP by addition of 0.8 ml of ethanol. The mixture was centrifuged at 1600 g for 20 minutes. After removing the supernatant, the extracted samples were air dried at room temperature overnight and then stored at 4° C. Immediately prior to assay, dried samples were reconstituted with assay buffer following manufacturer's instructions (Peninsula Labs) and assayed for CGRP by radioimmunoassay (RIA). CGRP antiserum, code RAS 6012, was used. The dynamic assay range was 1-128 picograms (pg) per 300 microliters (μL) of sample. […]"}, "[3]": {"system": "normal conscious dogs under beta-antagonist therapy with propranolol", "type": "in vivo", "details": "propranolol 2 milligrams/kg in bolus; normal subject"}}, "note": "“Also recorded” adds a separate entry of the source. Ends that are not written are not given here.", "data": [{"molecule": "[Na+].[Na+].[O-][N+]([O-])=NO", "note": "[Angeli's salt, sodium trioxodinitrate]", "values": [{"measurement": "persistence of beneficial effects during long-term infusion", "setting": "[1]", "result": "retains its beneficial effects during 3-4 hours of perfusion"}, {"measurement": "myocardial ischemia/reperfusion injury", "setting": "reperfused myocardium", "result": "increased myocardial ischemia/reperfusion injury"}, {"measurement": "cardiac load as measured by Edv (preload) and Ea (afterload)", "setting": "[2]", "result": "lowered left ventricular preload; also recorded: reduced the cardiac load"}, {"measurement": "neutrophil infiltration into renal tissue", "setting": "rat renal tissue", "result": "contributed to neutrophil infiltration into the tissue"}]}, {"molecule": "calcitonin gene-related peptide8-37 (VTHRLAGLLSRSGGVVKNNFVPTNVGSKAF; ends and bridges not checked; UniProt P06881 90-119, looked up, fragment) [CGRP8-37]", "values": [{"measurement": "inotropic effect as measured by Ees", "setting": "CGRP receptors; CGRP8-37 alone", "result": "modest negative inotropic effect"}, {"measurement": "effect on the positive inotropic effect of Angeli's salt (Ees)", "setting": "CGRP receptors; CGRP8-37 combined with Angeli's salt versus Angeli's salt alone", "result": "effectively prevented the HNO/NO^−-mediated, positive inotropic effect of Angeli's salt"}]}, {"molecule": "CC(C)NCC(O)COc1cccc2ccccc12", "note": "(stereo not drawn) [propranolol]", "values": [{"measurement": "myocardial performance", "setting": "[3]", "result": "reduction in myocardial performance"}]}, {"molecule": "CC(C)N[N+]([O-])=N[O-].[Na+]", "note": "[IPA/NO, isopropylamine (IPA)/NO(Na(CH3)2CHNHN(O)NO)]", "values": [{"measurement": "cardiac load as measured by Edv (preload) and Ea (afterload)", "setting": "[2]", "result": "reduced the cardiac load"}, {"measurement": "cardiac contractility compared with Angeli's salt (Ees)", "setting": "[2]; IPA/NO doses one-half to one-quarter those of Angeli's salt, nearly equivalent blood pressure decrease", "result": "superior to those caused by the HNO/NO^− donating compound Angeli's salt; also recorded: exerted a stronger positive inotropic effect; also recorded: greater increase in cardiac contractility than Angeli's salt"}]}]}
